The values below come from patent US11352338B2, “Substituted isoindolinones” (BioTheryX, Inc., priority 2018, dated 2022).

Assay [1] addresses T1, CK1α (Homo sapiens, UniProt P48729+Q96SW2).
T1 construct: endogenous in cells; host or cells: MV-4-11
In words: Western blot, degradation of cellular CK1α in MV-4-11 cells. The settings on record: MV4-11, tested at 1 μM, 6-8 hours, read-out: % Degradation compared to DMSO, CK1α. Format: cell-based. The method, boiled down:
(§1)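 MV-4-11 cells at about 10^6 cells/mL treated with DMSO or compound for 6–8 h. RIPA whole-cell lysates probed by Western blot for PDE6D, Ikaros and CK1α, with β-actin, using fluorescent secondary detection. % degradation binned: A <25%, B 25–<50%, C 50–<75%, D ≥75%.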

Assay [2] has as its system IL-6. In words: IL-6 inhibition, LPS-induced PBMCs or CD14+ monocytes, Meso Scale assay. Format: cell-based. The settings on record: LPS 100 ng/mL 18-24 h, read-out: % Inhibition compared to DMSO, IL-6; for inhibition at 1 µM: tested at 1 μM; for inhibition at 10 µM: tested at 10 μM. The method, boiled down: (§2)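 Human PBMCs or CD14+ mobilized peripheral blood monocytes, 200,000 cells/well, pretreated 1 h with compound at 1 μM or 10 μM, then stimulated with 100 ng/mL LPS for 18-24 h. Supernatant IL-1β, IL-6 and TNFα measured by Meso Scale assay against DMSO controls.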

The subject of assay [3] is IL-1β. In words: IL-1β inhibition, LPS-induced PBMCs or CD14+ monocytes, Meso Scale assay. Format: cell-based. The settings on record: LPS 100 ng/mL 18-24 h, read-out: % Inhibition compared to DMSO, IL-1β; for inhibition at 1 µM: tested at 1 μM; for inhibition at 10 µM: tested at 10 μM. The method, boiled down: as §2
Assay [4] has as its target T2, PDE6D (Homo sapiens, UniProt O43924+Q96SW2).
T2 construct: endogenous in cells; host or cells: MV-4-11
In words: Western blot, degradation of cellular PDE6D in MV-4-11 cells. Format: cell-based. The settings on record: for Dmax at 1 µM: MV4-11, tested at 1 μM, MV-4-11 cells, 6-8 hours, read-out: % Degradation compared to DMSO, PDE6D. The method, boiled down:
as §1

The target of assay [5] is T3, Ikaros (Homo sapiens, UniProt Q13422+Q96SW2).
T3 construct: endogenous in cells; host or cells: MV-4-11
Nature of the assay: Western blot, degradation of cellular Ikaros in MV-4-11 cells. The settings on record: MV4-11, tested at 1 μM, 6-8 hours, read-out: % Degradation compared to DMSO, Ikaros. Format: cell-based. The method, boiled down: as §1

Assay [6] relates to TNFα. In words: TNFα inhibition, LPS-induced PBMCs or CD14+ monocytes, Meso Scale assay. Format: cell-based. The settings on record: LPS 100 ng/mL 18-24 h, read-out: % Inhibition compared to DMSO, TNFα; for inhibition at 1 µM: tested at 1 μM; for inhibition at 10 µM: tested at 10 μM. The method, boiled down: as §2
Assay [7] concerns IL-2. Nature of the assay: IL-2 inhibition assay, anti-CD3 (OKT3) stimulated PBMCs, Mesoscale IL-2 analysis. Format: cell-based, human. The settings on record: for fold induction at 1 µM / fold induction at 10 µM: Homo sapiens, PBMC, PBMCs on anti-CD3, 24 h, fold difference from DMSO control, read-out: IL-2, % Induction compared to DMSO. The gist of the method: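 PBMCs (3-4 million cells/mL) were added with compound to plates precoated with 1 μg/mL anti-CD3 OKT3 and incubated 24 h. Supernatant IL-2 was quantified by Mesoscale, expressed as fold difference versus DMSO control and binned: A ≤0.5, B 0.5–1, C 1–<1.5, D ≥1.5.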

T2 sequence (O43924 whole entry): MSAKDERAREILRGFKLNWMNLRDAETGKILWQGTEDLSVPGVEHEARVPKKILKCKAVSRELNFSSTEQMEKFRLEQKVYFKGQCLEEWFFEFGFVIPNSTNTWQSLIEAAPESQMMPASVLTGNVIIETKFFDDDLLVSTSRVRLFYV
T2 sequence (Q96SW2 whole entry): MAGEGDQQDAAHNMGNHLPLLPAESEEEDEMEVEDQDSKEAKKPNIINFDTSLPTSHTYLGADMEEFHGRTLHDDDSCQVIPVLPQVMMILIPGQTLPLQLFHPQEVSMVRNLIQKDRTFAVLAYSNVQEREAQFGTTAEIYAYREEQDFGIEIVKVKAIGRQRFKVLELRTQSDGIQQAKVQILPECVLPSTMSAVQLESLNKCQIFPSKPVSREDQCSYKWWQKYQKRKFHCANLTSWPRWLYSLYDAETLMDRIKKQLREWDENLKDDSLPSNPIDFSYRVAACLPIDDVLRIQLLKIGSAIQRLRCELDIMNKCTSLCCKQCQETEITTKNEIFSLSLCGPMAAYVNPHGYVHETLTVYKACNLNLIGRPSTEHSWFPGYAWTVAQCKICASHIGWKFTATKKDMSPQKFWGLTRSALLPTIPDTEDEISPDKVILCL
T2 sequence (Q16531 whole entry partner): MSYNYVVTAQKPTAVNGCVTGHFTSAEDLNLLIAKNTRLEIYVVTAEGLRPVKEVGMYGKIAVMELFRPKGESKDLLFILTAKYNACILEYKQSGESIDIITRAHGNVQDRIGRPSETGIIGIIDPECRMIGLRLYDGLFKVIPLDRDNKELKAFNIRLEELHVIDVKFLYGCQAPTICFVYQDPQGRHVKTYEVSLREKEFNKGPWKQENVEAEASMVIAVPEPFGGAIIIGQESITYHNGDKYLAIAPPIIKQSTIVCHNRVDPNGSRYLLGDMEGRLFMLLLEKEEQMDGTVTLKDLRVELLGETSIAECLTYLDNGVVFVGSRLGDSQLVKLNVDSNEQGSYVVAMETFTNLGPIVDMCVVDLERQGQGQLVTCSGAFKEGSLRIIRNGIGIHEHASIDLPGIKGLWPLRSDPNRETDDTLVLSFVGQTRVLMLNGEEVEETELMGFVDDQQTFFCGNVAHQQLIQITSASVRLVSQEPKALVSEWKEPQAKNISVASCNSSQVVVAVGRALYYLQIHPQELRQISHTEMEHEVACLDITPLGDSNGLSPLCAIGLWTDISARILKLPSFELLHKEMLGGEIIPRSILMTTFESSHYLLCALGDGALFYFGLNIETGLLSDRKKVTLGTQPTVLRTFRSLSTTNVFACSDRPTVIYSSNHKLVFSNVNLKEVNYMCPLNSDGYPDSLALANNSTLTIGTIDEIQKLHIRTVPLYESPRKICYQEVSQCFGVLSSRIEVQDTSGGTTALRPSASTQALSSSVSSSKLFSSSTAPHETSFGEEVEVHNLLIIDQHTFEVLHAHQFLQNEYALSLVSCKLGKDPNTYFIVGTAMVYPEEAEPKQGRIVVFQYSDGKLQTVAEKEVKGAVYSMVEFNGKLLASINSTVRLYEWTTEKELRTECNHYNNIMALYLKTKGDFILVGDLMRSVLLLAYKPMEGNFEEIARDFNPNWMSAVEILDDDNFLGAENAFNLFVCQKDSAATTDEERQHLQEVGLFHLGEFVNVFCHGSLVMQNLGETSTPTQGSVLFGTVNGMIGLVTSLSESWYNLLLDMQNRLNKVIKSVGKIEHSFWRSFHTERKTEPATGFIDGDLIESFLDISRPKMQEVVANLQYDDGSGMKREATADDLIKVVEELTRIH
T1 sequence (P48729 whole entry): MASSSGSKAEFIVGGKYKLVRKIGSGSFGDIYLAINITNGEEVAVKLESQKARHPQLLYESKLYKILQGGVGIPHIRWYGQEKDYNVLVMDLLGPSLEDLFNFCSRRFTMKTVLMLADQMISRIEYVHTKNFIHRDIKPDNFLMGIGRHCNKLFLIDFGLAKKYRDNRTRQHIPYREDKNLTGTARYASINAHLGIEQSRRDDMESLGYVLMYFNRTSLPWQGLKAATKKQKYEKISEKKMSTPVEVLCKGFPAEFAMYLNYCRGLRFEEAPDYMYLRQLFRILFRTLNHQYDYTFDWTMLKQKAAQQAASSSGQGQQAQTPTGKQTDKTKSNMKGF
T1 sequence (Q96SW2 whole entry): as the sequence (Q96SW2 whole entry) above
T1 sequence (Q16531 whole entry partner): as the sequence (Q16531 whole entry partner) above
T3 sequence (Q13422 whole entry): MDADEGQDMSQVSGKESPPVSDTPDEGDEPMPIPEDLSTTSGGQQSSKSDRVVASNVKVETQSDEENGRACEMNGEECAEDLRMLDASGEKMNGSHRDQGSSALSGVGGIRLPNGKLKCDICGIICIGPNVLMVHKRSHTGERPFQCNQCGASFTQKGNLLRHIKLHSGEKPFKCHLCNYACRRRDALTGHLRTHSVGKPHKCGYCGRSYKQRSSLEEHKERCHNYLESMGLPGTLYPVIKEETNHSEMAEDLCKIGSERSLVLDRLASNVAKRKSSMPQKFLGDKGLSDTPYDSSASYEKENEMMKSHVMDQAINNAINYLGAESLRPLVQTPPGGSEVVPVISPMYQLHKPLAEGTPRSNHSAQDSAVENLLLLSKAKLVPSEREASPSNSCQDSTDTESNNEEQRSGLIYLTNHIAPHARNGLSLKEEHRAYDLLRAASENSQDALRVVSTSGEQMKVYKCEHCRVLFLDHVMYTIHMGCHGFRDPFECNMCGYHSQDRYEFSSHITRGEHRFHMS
T3 sequence (Q96SW2 whole entry): as the sequence (Q96SW2 whole entry) above
T3 sequence (Q16531 whole entry partner): as the sequence (Q16531 whole entry partner) above

Regarding `O=C1CCC(N2Cc3c(cc(C(F)(F)F)cc3C3CCCC3)C2=O)C(=O)N1` (stereo not shown) [Compound 29], the values for the Dmax at 1 µM in assay [1], in assay [4] and in assay [5] were < 25%, < 25% and 25 to 50%, respectively. For the same molecule, the inhibition at 1 µM is 10 to 25% in assay [2], < 10% in assay [3] and < 10% in assay [6]. The figures for the inhibition at 10 µM in assay [2], in assay [3] and in assay [6] were < 10%, < 10% and 10 to 25%, respectively. Also, the fold induction at 1 µM in assay [7] was 0.5 to 1. Also, the fold induction at 10 µM in assay [7] (10 μM) lay within 0.5 to 1.

Take `O=C1CCC(N2Cc3c(cc(F)cc3C3CCCCC3)C2=O)C(=O)N1` (stereo not shown) [Compound 3]: the Dmax at 1 µM in assay [1] is 50 to 75%; in assay [4] it was ≥ 75%; in assay [5] it was 25 to 50%. In addition, the inhibition at 1 µM in assay [2], in assay [3] and in assay [6] was < 10% each time. Besides, the inhibition at 10 µM in assay [2], in assay [3] and in assay [6] was < 10% throughout. Besides, in assay [7], the fold induction at 1 µM was ≤ 0.5. Further, the fold induction at 10 µM in assay [7] (10 μM) is ≤ 0.5.

Turning to `O=C1CCC(N2Cc3c(cc(F)cc3C3CCCCCC3)C2=O)C(=O)N1` (stereo not shown) [Compound 15], the Dmax at 1 µM in assay [1] is 50 to 75%; in assay [4] it was ≥ 75%; in assay [5], 25 to 50%. The inhibition at 1 µM in assay [2], in assay [3] and in assay [6] was < 10% each time. The inhibition at 10 µM in assay [2], in assay [3] and in assay [6] was < 10% throughout. Further, in assay [7], the fold induction at 1 µM lay within 0.5 to 1. For the same molecule, the fold induction at 10 µM in assay [7] (10 μM) is ≤ 0.5.

Consider `O=C1CCC(N2Cc3c(cc(F)cc3C3CCCC3)C2=O)C(=O)N1` (stereo not shown) [Compound 1], for which the Dmax at 1 µM in assay [1] was ≥ 75%; in assay [4] it was ≥ 75%; in assay [5] it was 50 to 75%. The inhibition at 1 µM in assay [2] is < 10%; in assay [3], 10 to 25%; in assay [6], 25 to 50%. In addition, the figures for the inhibition at 10 µM in assay [2], in assay [3] and in assay [6] were < 10%, 25 to 50% and 25 to 50%, respectively. Further, in assay [4] (1 μM, comparison with comparative compound A), the “% Degradation of PDE6D” value is on record as “D (a % degradation value of equal to or more than 75% (value≥75%))”. Moreover, the “effect on IL-2 (in words)” value in assay [7] (10 μM) is on record as “strong inhibition of IL-2 (downregulation)”. In assay [7] (10 μM, comparison with comparative compound B), the “IL-2, % Induction compared to DMSO” value was “A (a fold-change value of equal to or less than 0.5 (value≤0.5))”. Besides, in assay [7], the fold induction at 1 µM was ≤ 0.5. Moreover, the fold induction at 10 µM in assay [7] (10 μM) is ≤ 0.5.

Turning to `O=C1CCC(N2Cc3c(C4CCCC4)ccc(F)c3C2=O)C(=O)N1` (stereo not shown) [Compound 27], the Dmax at 1 µM in assay [1], in assay [4] and in assay [5] was < 25% throughout. In addition, the results for the inhibition at 1 µM in assay [2], in assay [3] and in assay [6] were 10 to 25%, < 10% and 10 to 25%, respectively. Also, the figures for the inhibition at 10 µM in assay [2], in assay [3] and in assay [6] were < 10%, < 10% and 25 to 50%, respectively. For the same molecule, the fold induction at 1 µM in assay [7] fell in the range of 0.5 to 1. Also, the fold induction at 10 µM in assay [7] (10 μM) was 0.5 to 1.
